Experimental data as given in US20040127537A1 (priority 2002, published 2004).

Tests used:
[1] = Example 6: buffer capacity titration of parecoxib sodium formulations with added buffer; format: physicochemical; details: for Improvement in buffer capacity: parecoxib sodium 40 mg/ml f.a.e., acid to adjust pH 8.5 to 7.4, with versus without buffer; for effect of added buffer on buffer capacity: parecoxib sodium formulations tested, PEG 600/WFI
Description: The amount of titrant used to titrate each parecoxib sodium/buffer solution was compared with that required to titrate a parecoxib solution without buffer. Percent improvement in buffer capacity was determined by comparing the amount of acid required to adjust pH from 8.5 to 7.4 in the presence versus absence of buffer.

[2] = Example 4: storage stability of liquid formulations LF1-LF9 (valdecoxib formed, HPLC); format: physicochemical; details: PEG/water formulations of Example 4 (PEG 300, 400, 600)
Description: Each vial was flushed with nitrogen gas prior to stoppering.
Valdecoxib was measured by HPLC and was calculated as a percentage of parecoxib initially present.

[3] = Example 2: stability of parecoxib sodium in solvent liquids with different solubilizers; format: physicochemical; details: 55° C., 3 days, FIG. 2
Description: (§1) The procedure was similar to that of Example 1. Valdecoxib formed was calculated as a percentage of parecoxib initially present.

[4] = Example 3: stability of parecoxib sodium in PEG-containing solvent liquids; format: physicochemical; details: 70° C., 7 days, FIG. 3
Description: as §1

[5] = Example 1: stability of parecoxib sodium in candidate solubilizers (valdecoxib formed, HPLC); format: physicochemical; details: 40 mg/ml f.a.e., 70° C., 7 days, FIG. 1
Description: Formulations were prepared and sealed in Type I vials. […] Valdecoxib formed was calculated as a percentage of parecoxib initially present.

[6] = conversion of parecoxib to valdecoxib after parenteral administration; format: in vivo; details: human subject
Source text: The term “equal” in this context means equal in molar amount or in absolute amount (i.e., in weight).

[7] = precipitation of parecoxib free acid on downward pH drift of composition; format: physicochemical; details: parecoxib salt composition, downward pH drift on storage
Source text: Presence of precipitated parecoxib free acid in a parenteral composition is undesirable as it can cause local pain and irritation upon injection.

[8] = molecular target: COX-1 (Homo sapiens, UniProt P23219); details: cited from earlier work
COX-1, sequence (P23219 24-599): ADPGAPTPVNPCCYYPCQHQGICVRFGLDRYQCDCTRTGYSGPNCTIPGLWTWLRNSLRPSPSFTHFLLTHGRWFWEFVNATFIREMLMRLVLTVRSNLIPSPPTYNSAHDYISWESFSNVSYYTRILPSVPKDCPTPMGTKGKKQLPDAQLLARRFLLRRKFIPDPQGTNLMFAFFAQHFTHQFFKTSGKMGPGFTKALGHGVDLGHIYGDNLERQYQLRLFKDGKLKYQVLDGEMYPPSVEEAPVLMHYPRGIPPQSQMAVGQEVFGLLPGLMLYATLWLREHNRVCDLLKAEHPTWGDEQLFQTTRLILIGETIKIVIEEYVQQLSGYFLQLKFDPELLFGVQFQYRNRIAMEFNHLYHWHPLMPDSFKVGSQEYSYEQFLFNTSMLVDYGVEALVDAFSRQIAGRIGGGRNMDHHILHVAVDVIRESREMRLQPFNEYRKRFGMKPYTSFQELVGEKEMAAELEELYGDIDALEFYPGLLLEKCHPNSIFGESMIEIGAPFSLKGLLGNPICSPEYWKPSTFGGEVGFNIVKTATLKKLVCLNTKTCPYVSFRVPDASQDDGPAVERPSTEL

[9] = cited from earlier work
[10] = Example 6: solubility of buffers in PEG 600/water solvent liquid; format: physicochemical; details: solvent liquid 65% PEG 600 and 35% water, room temperature

## O=C1O[C@H]([C@@H](O)CO)C([O-])=C1O.[Na+] [sodium ascorbate]
[1]; PEG 600/WFI 65/35 % by weight
  Improvement in buffer capacity: 14-37%^1
[1]
  effect of added buffer on buffer capacity: further improved buffer capacity

## CCC(=O)NS(=O)(=O)c1ccc(-c2c(-c3ccccc3)noc2C)cc1 [parecoxib sodium]
[2]
  parecoxib sodium stability as a function of PEG molecular weight: increases with increasing PEG molecular weight
[1]; less concentrated PEG solutions
  buffering effect of parecoxib sodium itself: weaker buffering effect
[1]; more highly concentrated PEG solutions
  buffering effect of parecoxib sodium itself: excellent buffer
[3]; propylene glycol containing solvent liquids
  stability (valdecoxib formed): less so
[3]; solvent liquids comprising PEG 300, ethanol or DMAC, with or without water
  stability (valdecoxib formed): stable
[3]; solvent liquids comprising glycerin
  conversion to valdecoxib: significant conversion to valdecoxib
[4]; 65% PEG 300, PEG 400 or PEG 600 in water
  stability (valdecoxib formed): acceptably stable
[4]; 65% PEG 600 or PEG 400 versus 65% PEG 300 in water
  valdecoxib formed, comparison of PEG grades: less valdecoxib formed
[5]; PEG 300, DMAC, 95% ethanol or 10 mM phosphate buffer pH 8.1 versus propylene glycol
  valdecoxib formed (stability): less valdecoxib was formed
[5]; in presence of glycerin
  conversion of parecoxib to valdecoxib: very rapid

## CC(O)C(=O)[O-].[Na+] (stereo not drawn) [sodium lactate]
[1]; PEG 600/WFI 65/35 % by weight
  Improvement in buffer capacity: negligible

## NCC(=O)O [glycine]
[1]; PEG 600/WFI 55/45 % by weight
  Improvement in buffer capacity: negligible
[1]; PEG 600/WFI 65/35 % by weight
  Improvement in buffer capacity: negligible

## CCC(=O)NS(=O)(=O)c1ccc(-c2c(-c3ccccc3)noc2C)cc1 [parecoxib, N-[[4-(5-methyl-3-phenylisoxazol-4-yl)phenyl]sulfonyl]propanamide]
[6]
  conversion to valdecoxib after parenteral administration: rapidly and completely converted to valdecoxib
[7]
  pH of the composition below which parecoxib precipitates in free acid form: below 7.4
[8]
  in vitro inhibitory activity against COX-1: weak in vitro inhibitory activity

## CC(=O)[O-].[Na+] [sodium acetate]
[1]; PEG 600/WFI 55/45 % by weight
  Improvement in buffer capacity: negligible
[1]; PEG 600/WFI 65/35 % by weight
  Improvement in buffer capacity: negligible

## Cc1onc(-c2ccccc2)c1-c1ccc(S(N)(=O)=O)cc1 [valdecoxib]
[9]
  solubility in water: about 10 μg/ml
[8]
  in vitro inhibitory activity against COX-1: weak inhibitor

## N[C@@H](Cc1c[nH]cn1)C(=O)O [histidine]
[10]
  Solubility > 0.01 M: no

## N=C(N)NCCC[C@H](N)C(=O)O [L-arginine]
[1]; PEG 600/WFI 65/35 % by weight
  Improvement in buffer capacity: negligible

## NC(CO)(CO)CO [tris, 2-amino-2-(hydroxymethyl)-1,3-propanediol]
[10]
  Solubility > 0.01 M: yes
[1]; PEG 600/WFI 55/45 % by weight
  Improvement in buffer capacity: 229%
[1]; PEG 600/WFI 65/35 % by weight
  Improvement in buffer capacity: 63%
[1]
  effect of added buffer on buffer capacity: further improved buffer capacity

## O=C([O-])/C=C\C(=O)[O-].[Na+].[Na+] [sodium maleate]
[1]; PEG 600/WFI 65/35 % by weight
  Improvement in buffer capacity: 21%
[1]
  effect of added buffer on buffer capacity: further improved buffer capacity
